Active and inactive are the calls of the source. The calls are words filed in the database; no cut-off is given here.
Columns and labels:
Type in all cases: cell-based
Mus musculus [1] = species on record: Mus musculus; assay: (§1) Induction of read through activity at premature termination codon TGA (non-sense mutation associated with DMD disease) in 27-mer DNA stretch sequence of mouse dystrophin mdx gene transfected as a plasmid by connecting with beta-galactosidase and luciferase genes in COS7 cells assessed as ratio of luciferase activity to beta-galactosidase activity at 200 uM incubated for 48 hrs by dual luciferase reporter gene assay relative to control
COS-7 = assay: Cytotoxicity against African green monkey COS7 cells assessed as decrease in cell viability by WST1 assay; conditions: Chlorocebus aethiops
HDQ-P1 [2] = assay: (§2) Induction of read through activity at premature termination codon TGA in human HDQ-P1 cells harboring TP53 R213X homozygous non-sense mutation sequence assessed as expression of full length p53 protein at 25 uM incubated for 72 hrs by automated capillary electrophoresis western analysis relative to vinculin expression
Mus musculus [3] = species on record: Mus musculus; assay: as §1, with “cells” for “cells assessed as ratio of luciferase activity to beta-galactosidase activity at 200 uM”, “(+)-G418” for “control”
HDQ-P1 [4] = assay: Induction of read through activity at premature termination codon TGA in human HDQ-P1 cells harboring TP53 R213X homozygous non-sense mutation sequence at 200 uM incubated for 72 hrs by automated capillary electrophoresis western analysis relative to G418
HDQ-P1 [5] = assay: as §2, with “12.5” for “25”
Homo sapiens [6] = species on record: Homo sapiens; assay: Induction of read through activity at premature termination codon TGA in human RLuc-DMD R3381X non-sense mutation sequence transfected in COS7 cells at 200 uM incubated for 48 hrs by dual luciferase reporter gene assay relative to control
Homo sapiens [7] = species on record: Homo sapiens; assay: Induction of read through activity at premature termination codon TGA in human RLuc-CF W1282X non-sense mutation sequence transfected in COS7 cells at 200 uM incubated for 48 hrs by dual luciferase reporter gene assay relative to control
HDQ-P1 [8] = assay: as §2, with “200” for “25”
Homo sapiens [9] = species on record: Homo sapiens; assay: Induction of read through activity at premature termination codon TGA in human RLuc-CF G542X non-sense mutation sequence transfected in COS7 cells at 200 uM incubated for 48 hrs by dual luciferase reporter gene assay relative to control
Homo sapiens [10] = species on record: Homo sapiens; assay: Induction of read through activity at premature termination codon TAG in human RLuc-TP53 Q192X non-sense mutation sequence transfected in COS7 cells at 200 uM incubated for 48 hrs by dual luciferase reporter gene assay relative to control
Mus musculus [11] = species on record: Mus musculus; assay: as §1, with “TAG” for “TGA”
Mus musculus [12] = species on record: Mus musculus; assay: as §1, with “cells” for “cells assessed as ratio of luciferase activity to beta-galactosidase activity at 200 uM”, “(+)-negamycin” for “control”
Mus musculus [13] = species on record: Mus musculus; assay: as §1, with “cells” for “cells assessed as ratio of luciferase activity to beta-galactosidase activity at 200 uM”, “assay” for “assay relative to control”
HDQ-P1 [14] = assay: as §2, with “50” for “25”
Homo sapiens [15] = species on record: Homo sapiens; assay: Induction of read through activity at premature termination codon TGA in human RLuc-LAMA2 C1546X non-sense mutation sequence transfected in COS7 cells at 200 uM incubated for 48 hrs by dual luciferase reporter gene assay relative to control
HDQ-P1 [16] = assay: as §2, with “100” for “25”
Mus musculus [17] = species on record: Mus musculus; assay: as §1, with “cells” for “cells assessed as ratio of luciferase activity to beta-galactosidase activity at 200 uM”, “TGP112” for “control”
Homo sapiens [18] = species on record: Homo sapiens; assay: Induction of read through activity at premature termination codon TGA in human RLuc-TP53 R213X non-sense mutation sequence transfected in COS7 cells at 200 uM incubated for 48 hrs by dual luciferase reporter gene assay relative to control
Mus musculus [19] = species on record: Mus musculus; assay: as §1, with “TAA” for “TGA”
HDQ-P1 [20] = assay: Cytotoxicity against human HDQ-P1 cells at 200 uM; conditions: hdq-p1, 200 µM

SMILES: CC(C)[C@H](N)C(=O)N[C@@H](CCN)CC(=O)NN(C)CC(=O)O
- Ratio (Mus musculus [1]): 2

SMILES: CN[C@@H](CC(C)C)C(=O)N[C@@H](CCN)CC(=O)NN(C)CC(=O)O
- Ratio (Mus musculus [1]): 2.45

SMILES: CN(CC(=O)O)NC(=O)C[C@H](CCN)NC(=O)[C@@H](N)CC1CCCCC1
- Ratio (Mus musculus [1]): 5.87

SMILES: CC(C)C[C@H](N)C(=O)N[C@@H](CCN)CC(=O)NN(C)CC(=O)O
- Ratio (Mus musculus [1]): 4.94

SMILES: CCCCCCCCCCC[C@H](N)C(=O)N[C@@H](CCN)CC(=O)NN(C)CC(=O)O
- IC50 (COS-7): 68.2 µM

SMILES: CN(CC(=O)O)NC(=O)C[C@H](CCN)NC(=O)[C@@H](N)CO
- Ratio (Mus musculus [1]): 1.48

SMILES: CN(CC(=O)O)NC(=O)C[C@H](CCN)NC(=O)[C@@H](N)Cc1ccccc1
- Ratio (Mus musculus [1]): 2.99

SMILES: CCCCCCCCC[C@H](N)C(=O)N[C@@H](CCN)CC(=O)NN(C)CC(=O)O
- Ratio (HDQ-P1 [2]): 2.4
- Ratio (Mus musculus [3]): 2
- Ratio (HDQ-P1 [4]): 3
- Ratio (HDQ-P1 [5]): 2.3
- Activity (Homo sapiens [6]): 2.25 to 7.3%
- Activity (Homo sapiens [7]): inactive
- Ratio (Mus musculus [1]): 16 to 18.3
- Ratio (HDQ-P1 [8]): 215
- Activity (Homo sapiens [9]): 2.25 to 7.3%
- Activity (Homo sapiens [10]): inactive
- Ratio (Mus musculus [11]): 4.39
- Ratio (Mus musculus [12]): 10
- Activity (Mus musculus [13]): Dose-dependent effect
- Ratio (HDQ-P1 [14]): 6.7
- Activity (Homo sapiens [15]): 6.34%
- Ratio (HDQ-P1 [16]): 48
- Ratio (Mus musculus [17]): 4
- Activity (Homo sapiens [18]): 2.25 to 7.3%
- Ratio (Mus musculus [19]): 2.24

SMILES: CC(C)CCC(=O)N[C@@H](CCN)CC(=O)NN(C)CC(=O)O
- Ratio (Mus musculus [1]): 2.82

SMILES: CCCCC[C@H](N)C(=O)N[C@@H](CCN)CC(=O)NN(C)CC(=O)O
- Ratio (Mus musculus [1]): 3.4

SMILES: CN(CC(=O)O)NC(=O)C[C@H](CCN)NC(=O)[C@@H](N)CC(N)=O
- Ratio (Mus musculus [1]): 2.21

SMILES: CC(C)C[C@H](N)C(=O)N[C@@H](CCCN)CC(=O)NN(C)CC(=O)O
- Ratio (Mus musculus [1]): 2.3
- Ratio (Mus musculus [11]): 1.3
- Ratio (Mus musculus [19]): 1.11

SMILES: CN(CC(=O)O)NC(=O)C[C@H](CCN)NC(=O)[C@@H](N)CC(=O)O
- Ratio (Mus musculus [1]): 1.96

SMILES: CCCC[C@H](N)C(=O)N[C@@H](CCN)CC(=O)NN(C)CC(=O)O
- Ratio (Mus musculus [1]): 4.21

SMILES: CN(CC(=O)O)NC(=O)C[C@H](N)C[C@@H](O)CN
- Ratio (Mus musculus [1]): 1.47 to 2.25
- Ratio (Mus musculus [11]): 1.17
- Ratio (Mus musculus [19]): 1.13

SMILES: CN(CC(=O)O)NC(=O)C[C@H](CCN)NC(=O)[C@@H](N)CCCN
- Ratio (Mus musculus [1]): 2.96

SMILES: CC(C)C[C@@H](N)C(=O)N[C@@H](CCN)CC(=O)NN(C)CC(=O)O
- Ratio (Mus musculus [1]): 1.46

SMILES: CN(CC(=O)O)NC(=O)C[C@H](CCN)NC(=O)[C@@H](N)CCC(N)=O
- Ratio (Mus musculus [1]): 1.62

SMILES: CN(CC(=O)O)NC(=O)C[C@H](CCN)NC(=O)CN
- Ratio (Mus musculus [1]): 2.74

SMILES: CN[C@H]1[C@H](O)[C@H](O[C@@H]2[C@@H](O)[C@H](O[C@H]3O[C@H]([C@@H](C)O)[C@@H](O)[C@H](O)[C@H]3N)[C@@H](N)C[C@H]2N)OC[C@@]1(C)O
- Activity (Homo sapiens [6]): 1.62 to 7.25%
- Activity (Homo sapiens [7]): 1.62 to 7.25%
- Ratio (Mus musculus [1]): 7.43 to 7.99
- Ratio (HDQ-P1 [8]): 72
- Activity (Homo sapiens [9]): 1.62 to 7.25%
- Activity (Homo sapiens [10]): 1.62 to 7.25%
- Ratio (Mus musculus [11]): 7.86
- Activity (Homo sapiens [15]): 1.62 to 7.25%
- Activity (HDQ-P1 [20]): Non-Toxic
- Activity (Homo sapiens [18]): 1.62 to 7.25%
- Ratio (Mus musculus [19]): 4.78

SMILES: CN(CC(=O)O)NC(=O)C[C@H](CCN)NC(=O)[C@@H](N)CCCCN
- Ratio (Mus musculus [1]): 2.49

SMILES: CN(CC(=O)O)NC(=O)C[C@H](CCN)NC(=O)[C@@H](N)CN
- Ratio (Mus musculus [1]): 3.02

SMILES: CN(CC(=O)O)NC(=O)C[C@@H](N)CCN
- Ratio (Mus musculus [1]): 3.8 to 4.26
- Ratio (HDQ-P1 [8]): 7.9
- Ratio (Mus musculus [11]): 1.48
- Activity (Homo sapiens [15]): 1.85%
- Activity (Homo sapiens [18]): 1.95%
- Ratio (Mus musculus [19]): 1.2

SMILES: CN(CC(=O)O)NC(=O)C[C@H](CCN)NC(=O)[C@@H](N)CCC(=O)O
- Ratio (Mus musculus [1]): 1.8

SMILES: CN(CC(=O)O)NC(=O)C[C@H](CCN)NC(=O)[C@@H](N)CCN
- Ratio (Mus musculus [1]): 3.25

SMILES: C[C@H](N)C(=O)N[C@@H](CCN)CC(=O)NN(C)CC(=O)O
- Ratio (Mus musculus [1]): 2.4

SMILES: CCCCCCC[C@H](N)C(=O)N[C@@H](CCN)CC(=O)NN(C)CC(=O)O
- Ratio (Mus musculus [1]): 7.97
- Ratio (Mus musculus [17]): 2

SMILES: CC[C@H](C)[C@H](N)C(=O)N[C@@H](CCN)CC(=O)NN(C)CC(=O)O
- Ratio (Mus musculus [1]): 1.83

SMILES: CN(CC(=O)O)NC(=O)C[C@H](CCN)NC(=O)[C@@H](N)Cc1ccc(O)cc1
- Ratio (Mus musculus [1]): 2.59

From ChEMBL document CHEMBL4364355, “New Negamycin-Based Potent Readthrough Derivative Effective against TGA-Type Nonsense Mutations” (ACS Med Chem Lett, 2019)
